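Five compound concentrations were applied to cells in 96-well plates for 48 hours; endpoints were derived by simple linear interpolation of the resulting dose-response curve. At the GI50, growth is halved. TGI is the concentration that stops growth completely.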
Tests used:
Assay in all cases: NCI-60 cell line screen, 48 h
SF-295 CNS = test system: SF-295 CNS
NCI-H23 lung = test system: NCI-H23 lung
HCC-2998 colon = test system: HCC-2998 colon
M14 melanoma = test system: M14 melanoma
MDA-MB-435 = test system: MDA-MB-435
OVCAR-5 ovarian = test system: OVCAR-5 ovarian
TK-10 renal = test system: TK-10 renal
BT-549 breast = test system: BT-549 breast
HOP-62 NSCLC = test system: HOP-62 NSCLC
SW-620 colon = test system: SW-620 colon
UACC-62 melanoma = test system: UACC-62 melanoma
SR leukemia = test system: SR leukemia
PC-3 prostate = test system: PC-3 prostate
MOLT-4 leukemia = test system: MOLT-4 leukemia
CAKI-1 renal = test system: CAKI-1 renal
HCT-116 colon = test system: HCT-116 colon
A549 NSCLC = test system: A549 NSCLC
CCRF-CEM leukemia = test system: CCRF-CEM leukemia
EKVX NSCLC = test system: EKVX NSCLC
OVCAR-3 ovarian = test system: OVCAR-3 ovarian
HL-60(TB) leukemia = test system: HL-60(TB) leukemia
SF-539 CNS = test system: SF-539 CNS
COLO 205 colon = test system: COLO 205 colon
KM12 colon = test system: KM12 colon
SN12C renal = test system: SN12C renal
SNB-75 CNS = test system: SNB-75 CNS
HCT-15 colon = test system: HCT-15 colon
MCF7 breast = test system: MCF7 breast
SK-MEL-5 melanoma = test system: SK-MEL-5 melanoma
RXF 393 renal = test system: RXF 393 renal
SK-MEL-2 melanoma = test system: SK-MEL-2 melanoma
K-562 leukemia = test system: K-562 leukemia
SK-MEL-28 melanoma = test system: SK-MEL-28 melanoma
OVCAR-8 ovarian = test system: OVCAR-8 ovarian
IGROV1 ovarian = test system: IGROV1 ovarian
MALME-3M melanoma = test system: MALME-3M melanoma
A498 renal = test system: A498 renal
ACHN renal = test system: ACHN renal
HS 578T breast = test system: HS 578T breast
SNB-19 CNS = test system: SNB-19 CNS
NCI/ADR-RES ovarian = test system: NCI/ADR-RES ovarian
UACC-257 melanoma = test system: UACC-257 melanoma
HT29 colon = test system: HT29 colon
DU-145 prostate = test system: DU-145 prostate
NCI-H226 lung = test system: NCI-H226 lung
UO-31 renal = test system: UO-31 renal
LOX IMVI melanoma = test system: LOX IMVI melanoma
MDA-MB-231 breast = test system: MDA-MB-231 breast
NCI-H460 lung = test system: NCI-H460 lung
NCI-H522 lung = test system: NCI-H522 lung
SK-OV-3 ovarian = test system: SK-OV-3 ovarian
OVCAR-4 ovarian = test system: OVCAR-4 ovarian
RPMI-8226 leukemia = test system: RPMI-8226 leukemia
U251 CNS = test system: U251 CNS
SF-268 CNS = test system: SF-268 CNS
786-0 renal = test system: 786-0 renal
T-47D breast = test system: T-47D breast
HOP-92 NSCLC = test system: HOP-92 NSCLC

## CN(CC(=O)N(Cc1ccc(C2CCCCC2)cc1)c1ccc(C(=O)O)c(O)c1)S(=O)(=O)c1c(F)c(F)c(F)c(F)c1F
SF-295 CNS
  GI50: 17.4 µM
  TGI: 37.2 µM
NCI-H23 lung
  GI50: 10.6 µM
  TGI: 26.9 µM
HCC-2998 colon
  GI50: 2.37 µM
  TGI: 5.72 µM
M14 melanoma
  GI50: 3.07 µM
  TGI: 13 µM
MDA-MB-435
  GI50: 3.39 µM
  TGI: 15.8 µM
OVCAR-5 ovarian
  GI50: 17.5 µM
  TGI: 32.4 µM
TK-10 renal
  GI50: 16.5 µM
  TGI: 30.4 µM
BT-549 breast
  GI50: 10.9 µM
  TGI: 23.6 µM
HOP-62 NSCLC
  GI50: 13.4 µM
  TGI: 30.4 µM
SW-620 colon
  GI50: 1.71 µM
  TGI: 3.23 µM
UACC-62 melanoma
  GI50: 3.18 µM
  TGI: 12.1 µM
SR leukemia
  GI50: 1.9 µM
  TGI: 4.28 µM
PC-3 prostate
  GI50: 12.2 µM
  TGI: 27.7 µM
MOLT-4 leukemia
  GI50: 3.12 µM
  TGI: 12 µM
CAKI-1 renal
  GI50: 5.09 µM
  TGI: 10.4 µM
HCT-116 colon
  GI50: 3.72 µM
  TGI: 11.9 µM
A549 NSCLC
  GI50: 14.9 µM
  TGI: 31.7 µM
CCRF-CEM leukemia
  GI50: 1.84 µM
  TGI: 4.69 µM
EKVX NSCLC
  GI50: 15.7 µM
  TGI: 29.8 µM
OVCAR-3 ovarian
  GI50: 9.95 µM
  TGI: 23.3 µM
HL-60(TB) leukemia
  GI50: 2.18 µM
  TGI: 5.82 µM
SF-539 CNS
  GI50: 18.2 µM
  TGI: 35 µM
COLO 205 colon
  GI50: 12.7 µM
  TGI: 26.5 µM
KM12 colon
  GI50: 19 µM
  TGI: 33.7 µM
SN12C renal
  GI50: 6.74 µM
  TGI: 24.4 µM
SNB-75 CNS
  GI50: 6.07 µM
  TGI: 16.7 µM
HCT-15 colon
  GI50: 2.08 µM
  TGI: 4.43 µM
MCF7 breast
  GI50: 3.56 µM
  TGI: 15.1 µM
SK-MEL-5 melanoma
  GI50: 14 µM
  TGI: 27.3 µM
RXF 393 renal
  GI50: 1.89 µM
  TGI: 3.76 µM
SK-MEL-2 melanoma
  GI50: 2.2 µM
  TGI: 4.76 µM
K-562 leukemia
  GI50: 2.05 µM
  TGI: 4.57 µM
SK-MEL-28 melanoma
  GI50: 1.86 µM
  TGI: 3.89 µM
OVCAR-8 ovarian
  GI50: 7.11 µM
  TGI: 20.5 µM
IGROV1 ovarian
  GI50: 1.85 µM
  TGI: 4.08 µM
MALME-3M melanoma
  GI50: 2.89 µM
  TGI: 12.3 µM
A498 renal
  GI50: 13.2 µM
  TGI: 26.1 µM
ACHN renal
  GI50: 15.3 µM
  TGI: 28.8 µM
HS 578T breast
  GI50: 6.92 µM
  TGI: 35.1 µM
SNB-19 CNS
  GI50: 11.3 µM
  TGI: 25.1 µM
NCI/ADR-RES ovarian
  GI50: 17.2 µM
  TGI: 38.1 µM
UACC-257 melanoma
  GI50: 3.93 µM
  TGI: 8.53 µM
HT29 colon
  GI50: 2.05 µM
  TGI: 4.2 µM
DU-145 prostate
  GI50: 15.6 µM
  TGI: 29 µM
NCI-H226 lung
  GI50: 18.6 µM
  TGI: 41.5 µM
UO-31 renal
  GI50: 12 µM
  TGI: 25.8 µM
LOX IMVI melanoma
  GI50: 1.6 µM
  TGI: 3.01 µM
MDA-MB-231 breast
  GI50: 1.86 µM
  TGI: 4.13 µM
NCI-H460 lung
  GI50: 16.4 µM
  TGI: 36.5 µM
NCI-H522 lung
  GI50: 2.74 µM
  TGI: 8.51 µM
SK-OV-3 ovarian
  GI50: 16.5 µM
  TGI: 31.1 µM
OVCAR-4 ovarian
  GI50: 14 µM
  TGI: 27.8 µM
RPMI-8226 leukemia
  GI50: 2.28 µM
  TGI: 6.37 µM
U251 CNS
  GI50: 1.81 µM
  TGI: 3.82 µM
SF-268 CNS
  GI50: 7.19 µM
  TGI: 20.9 µM
786-0 renal
  GI50: 8.88 µM
  TGI: 23.8 µM
T-47D breast
  GI50: 8.14 µM
  TGI: 27 µM
HOP-92 NSCLC
  GI50: 1.95 µM
  TGI: 8.91 µM
